This is an account of results in US9125913B2, “Bcl-2-selective apoptosis-inducing agents for the treatment of cancer and immune diseases” (AbbVie Inc., priority 2008, dated 2015).

Structures are written as SMILES.

For this assay, the system named is GST-Bcl-2. Description: TR-FRET binding assay, Bcl-2. The note with it: TR-FRET Ki values. The method in brief:
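Compounds serially diluted in DMSO from 50 μM (2× starting concentration, 10% DMSO), mixed with GST-tagged protein, F-Bak peptide probe and Tb-labeled antibody, incubated 3 h at room temperature.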
Background: Time-resolved FRET reads energy transfer from a long-lived donor to a nearby acceptor.
Consider `CN1CCC(O)(CNc2ccc(S(=O)(=O)NC(=O)c3ccc(N4CCN(CC5=C(c6ccc(Cl)cc6)CC(C)(C)CC5)CC4)cc3Oc3ccc4[nH]ccc4c3)cc2[N+](=O)[O-])CC1` [EXAMPLE 183, 4-(4-{[2-(4-chlorophenyl)-4,4-dimethylcyclohex-1-en-1-yl]methyl}piperazin-1-yl)-N-[(4-{[(4-hydroxy-1-methylpiperidin-4-yl)methyl]amino}-3-nitrophenyl)sulfonyl]-2-(1H-indol-5-yloxy)benzamide], for which the “Binding selectivity ratio (Bcl-XL Ki/Bcl-2 Ki)” value (“Binding selectivity ratio” for short) came out at 240.5.

Consider `CC1(C)CCC(CN2CCN(c3ccc(C(=O)NS(=O)(=O)c4cnc(OCC5(F)CCOCC5)c(Cl)c4)c(Oc4cccc5[nH]ncc45)c3)CC2)=C(c2ccc(Cl)cc2)C1` [EXAMPLE 404, N-({5-chloro-6-[(4-fluorotetrahydro-2H-pyran-4-yl)methoxy]pyridin-3-yl}sulfonyl)-4-(4-{[2-(4-chlorophenyl)-4,4-dimethylcyclohex-1-en-1-yl]methyl}piperazin-1-yl)-2-(1H-indazol-4-yloxy)benzamide], for which the “Binding selectivity ratio” value is reported as 2423.

`CC1(C)CCC(CN2CCN(c3ccc(C(=O)NS(=O)(=O)c4ccc(NC5CCN(C6Cc7ccccc7C6)CC5)c([N+](=O)[O-])c4)c(Oc4cccc5[nH]ccc45)c3)CC2)=C(c2ccc(Cl)cc2)C1` [EXAMPLE 227, 4-(4-{[2-(4-chlorophenyl)-4,4-dimethylcyclohex-1-en-1-yl]methyl}piperazin-1-yl)-N-[(4-{[1-(2,3-dihydro-1H-inden-2-yl)piperidin-4-yl]amino}-3-nitrophenyl)sulfonyl]-2-(1H-indol-4-yloxy)benzamide]: the “Binding selectivity ratio” value is above 96.6.

Turning to `CC1(C)CCC(CN2CCN(c3ccc(C(=O)NS(=O)(=O)c4ccc(NCCCN5CCOCC5)c([N+](=O)[O-])c4)c(Oc4ccc5[nH]ncc5c4)c3)CC2)=C(c2ccc(Cl)cc2)C1` [Example 20, 4-(4-{[2-(4-chlorophenyl)-4,4-dimethylcyclohex-1-en-1-yl]methyl}piperazin-1-yl)-2-(1H-indazol-5-yloxy)-N-({4-[(3-morpholin-4-ylpropyl)amino]-3-nitrophenyl}sulfonyl)benzamide], the “Binding selectivity ratio” value amounted to 32.8.

As for `CN1CCN(Nc2ccc(S(=O)(=O)NC(=O)c3ccc(N4CCN(CC5=C(c6ccc(Cl)cc6)CC(C)(C)CC5)CC4)cc3Oc3ccc4[nH]ccc4c3)cc2S(=O)(=O)C(F)(F)F)CC1` [EXAMPLE 220, 4-(4-{[2-(4-chlorophenyl)-4,4-dimethylcyclohex-1-en-1-yl]methyl}piperazin-1-yl)-2-(1H-indol-5-yloxy)-N-({4-[(4-methylpiperazin-1-yl)amino]-3-[(trifluoromethyl)sulfonyl]phenyl}sulfonyl)benzamide], the “Binding selectivity ratio” value was 163.7.

Turning to `CC1(C)CCC(CN2CCN(c3ccc(C(=O)NS(=O)(=O)c4ccc(NCC5CCC(F)(F)CC5)c([N+](=O)[O-])c4)c(Oc4cccc5[nH]ncc45)c3)CC2)=C(c2ccc(Cl)cc2)C1` [EXAMPLE 412, 4-(4-{[2-(4-chlorophenyl)-4,4-dimethylcyclohex-1-en-1-yl]methyl}piperazin-1-yl)-N-[(4-{[(4,4-difluorocyclohexyl)methyl]amino}-3-nitrophenyl)sulfonyl]-2-(1H-indazol-4-yloxy)benzamide], the “Binding selectivity ratio” value turned out to be 6545.

As to `CC1(C)CCC(CN2CCN(c3ccc(C(=O)NS(=O)(=O)c4ccc(NCCN5CCCCC5=O)c([N+](=O)[O-])c4)c(Oc4ccc5[nH]ccc5c4)c3)CC2)=C(c2ccc(Cl)cc2)C1` [EXAMPLE 267, 4-(4-{[2-(4-chlorophenyl)-4,4-dimethylcyclohex-1-en-1-yl]methyl}piperazin-1-yl)-2-(1H-indol-5-yloxy)-N-[(3-nitro-4-{[2-(2-oxopiperidin-1-yl)ethyl]amino}phenyl)sulfonyl]benzamide], the “Binding selectivity ratio” value was above 1453.3.
